How the values were obtained:
[1] = test system: Mycobacterium tuberculosis; assay: Minimum inhibition concentration required against isoniazid resistant Mycobacterium tuberculosis was determined in monolayers of mouse bone marrow macrophages; format: functional
[2] = test system: Mycobacterium tuberculosis; assay: Minimum bactericidal required against isoniazid resistant Mycobacterium tuberculosis was determined in monolayers of mouse bone marrow macrophages; format: functional

SMILES: NNC(=O)c1ccncc1 [ISONIAZID]
- MIC [1]: > 0.2 µg/mL
- MBC [2]: > 1.6 µg/mL

Reference: ChEMBL document CHEMBL1138642, “In vitro advanced antimycobacterial screening of cobalt(II) and copper(II) complexes of fluorinated isonicotinoylhydrazones” (2004)
